Source: paper PMC6921279 (Frontiers in Endocrinology, 2019)

Key:
[1] = test system: EGF-stimulated ERK1/2 phosphorylation; experiment: Modulation of EGF-stimulated ERK1/2 phosphorylation in COS-7 cells; assay type: cell-based; conditions: wortmannin 100 nM, 30 min pretreatment; 10 ng/ml EGF, 10 min
Protocol: COS-7 cells (from the American Type Culture Collection) were cultured at 37°C in a humidified atmosphere of 95% air, 5% CO2, in DMEM supplemented with 10% FBS, 100 μg/ml streptomycin, and 100 units/ml penicillin (COS-7 growth medium). Transient transfections were performed using LipofectAMINE (Life Technologies: Gaithersburg, MD) as described previously ([27]). Cells were seeded at 8 × 10^5 cells/10-cm dish in COS-7 medium and cultured for 3 days before transfection. COS-7 cells were transfected in 5 ml/dish OptiMEM containing 10 μg/ml LipofectAMINE with empty vector, pcDNA3 encoding the HA-CRF1R or the HA-CRF1R-Δ386 mutant. […] After replacing the transfection medium with fresh growth medium, transfected COS-7 cells were cultured for 1 day. […]
The protocols for measuring total and phosphorylated ERK1/2, c-Src, PYK2, Akt, and EGFR have been previously published ([28], [29]). […] The labeled bands were quantified using the Quantity One 4.6.3 software program (Bio-Rad).
Figure 3 Involvement of EGFR transactivation in CRF-stimulated ERK1/2 phosphorylation. […] Total cell lysates were separated by SDS-PAGE and analyzed by immunoblotting with anti-p-ERK1/2 Thr^202/Tyr^204 (A–D) or anti-p-EGFR Tyr^1068 (E), as described in Materials and Methods. ERK1/2 and EGFR phosphorylation were quantitated by densitometry, and mean values were plotted from three to five independent experiments. […]

[2] = test system: CRF1R-mediated ERK1/2 phosphorylation; experiment: Modulation of CRF-stimulated ERK1/2 phosphorylation in COS-7 cells expressing HA-CRF1R; assay type: cell-based; conditions: wortmannin (0–100 nM), 30 min pretreatment; 100 nM CRF, 5 min
Procedure, shortened: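 Lysates were immunoblotted for phospho-ERK1/2 Thr202/Tyr204. Phosphorylation was quantified by densitometry as the mean of three to five independent experiments.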

With `COC[C@H]1OC(=O)c2coc3c2[C@@]1(C)C1=C(C3=O)[C@@H]2CCC(=O)[C@@]2(C)C[C@H]1OC(C)=O` [wortmannin] the “effect on EGF-stimulated ERK1/2 phosphorylation” value [1] was “unable to inhibit the effect of EGF” and the “effect on CRF-stimulated ERK1/2 phosphorylation” value [2] was “abolished CRF-stimulated ERK1/2 phosphorylation”.
